Reference: patent US20240269115A1, “PYRAZOLONE COMPOUNDS FOR USE IN DEGENERATIVE RETINAL DISEASES” (FLONEXT S.R.L., priority 2021, published 2024)

Tests used:
[1] = system: NalO3-induced increase in retinal 4-hydroxynonenal (4-HNE) in macular degeneration model mice; assay: Retinal oxidative stress by 4-HNE immunofluorescence in the NalO3 mouse model of macular degeneration; assay type: in vivo, C57BL/6J male mice; conditions: eye drops 5 μl 3 times a day, days 1-3 (dipyrone 16.65 μg, propyphenazone 11.5 μg, indomethacin 17.85 μg); NalO3 20 mg/kg retro-orbital vein; retina collected day 4; mean±SEM
Procedure: (§1) To create a valid model of macular degeneration, systemic administration (via the retro-orbital vein) of NalO3 was carried out in C57BL/6J male mice aged 5-8 weeks and weighing 22-25 g supplied by the Charles River company (Milan, Italy). A total of 30 mice were used to carry out the experiments described below. The animals were kept in a temperature and humidity-controlled environment (12-hour dark/light cycle, free access to food and water).
(§2) As described above, the mouse model obtained by systemic administration (via the retro-orbital vein) of NalO3 is a model of macular degeneration. In fact, 3 days after administration, NalO3 induced in mice persistent retinal damage with characteristics similar to those observed in age-related macular degeneration in humans.
(§3) In order to evaluate the efficacy of dipyrone and propyphenazone, preferred compounds belonging to the pyrazolone class, in reducing and treating the retinal damage typical of macular degeneration, a model of macular degeneration was developed with an experiment on 5 groups of mice. The mice were administered dipyrone, propyphenazone, indomethacin or their vehicle, locally via eye drops.
(§4) In particular, a group of 6 mice (used as a control) were given vehicle (V1) (NaCl, 0.9%) of NalO3 (1 ml/kg) 60 minutes before the injection into the retro-orbital vein and subsequently given eye drops (5 μl) containing the vehicle (V2) (4% DMSO, 4% Tween 80 in 0.9% NaCl) of the drugs 3 times a day by instillation. […]
The level of oxidative stress was also assessed throughout the thickness of the retina by measuring the immunofluorescence intensity for the reactive carbonyl species, 4-hydroxynonenal (4-HNE), a final indicator of oxidative stress.
Levels of 4-HNE were quantified using a primary antibody (#ab48506, monoclonal mouse [HNEJ-2], 1:40, Abcam, Cambridge, UK) to which a second antibody (fluorophore-labelled, Alexa Fluor 594, #A A32742, Thermo Fisher Scientific) binds in the 5 groups of mice treated with V2/V1, V2/NalO3, dipyrone/NalO3, propyphenazone/NalO3 and indomethacin/NalO3. […]

[2] = system: NalO3-induced damage of the RPE layer in macular degeneration model mice; assay: Retinal pigment epithelium damage by RPE65 immunofluorescence in the NalO3 mouse model of macular degeneration; assay type: in vivo, C57BL/6J male mice; conditions: eye drops 5 μl 3 times a day, days 1-3 (dipyrone 16.65 μg, propyphenazone 11.5 μg, indomethacin 17.85 μg); NalO3 20 mg/kg retro-orbital vein; retina collected day 4; mean±SEM
Procedure: as §1, §2, §3, §4
Damage to the RPE (retinal pigmented epithelium) was assessed by direct immunofluorescence. […]
The staining intensity of the RPE layer was quantified using a primary antibody (RPE65, #ab13826, mouse monoclonal, 1:100, Abcam, Cambridge, UK) to which a second antibody (fluorophore-labelled, Alexa Fluor 488, #A28175, Thermo Fisher Scientific) binds in the 5 groups of mice treated with V2/V1, V2/NalO3, dipyrone/NalO3, propyphenazone/NalO and indomethacin/NalO3. […]

Cc1c(N(C)CS(=O)(=O)[O-])c(=O)n(-c2ccccc2)n1C.[Na+] [dipyrone, Dipyrone]
reduction in retinal 4-HNE levels (immunofluorescence) vs. V2 [1]: 69.7±11.8%
reduction of the damage induced by NalO3 on the RPE layer (RPE65 staining intensity) compared to V2 [2]: 87.8±7.8%

COc1ccc2c(c1)c(CC(=O)O)c(C)n2C(=O)c1ccc(Cl)cc1 [indomethacin, Indomethacin]
reduction in retinal 4-HNE levels (immunofluorescence) vs. V2 [1]: 17.5±10.5%
reduction of the damage induced by NalO3 on the RPE layer (RPE65 staining intensity) compared to V2 [2]: 5.7±14.9%

Cc1c(C(C)C)c(=O)n(-c2ccccc2)n1C [propyphenazone, Propyphenazone]
reduction in retinal 4-HNE levels (immunofluorescence) vs. V2 [1]: 81.3±7.0%
reduction of the damage induced by NalO3 on the RPE layer (RPE65 staining intensity) compared to V2 [2]: 99.2±23.0%
